Source: ChEMBL document CHEMBL1201862, “PubChem BioAssay data set” (2004)
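In this assay, cells in 96-well plates receive the compound at five concentrations for 48 hours. Endpoints are linearly interpolated between the surrounding concentrations. GI50: concentration for 50% inhibition of growth.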 Activity calls are given as the source filed them. Rule as the data show it: active = GI50 up to about 1.1 µM and inactive = higher.

How the values were obtained:
Experiment in all cases: DTP human tumour cell line panel, 48 h
[1] = test system: T47D
[2] = test system: U-251
[3] = test system: SN12C
[4] = test system: NCI-H522
[5] = test system: HOP-92
[6] = test system: SK-MEL-2
[7] = test system: HT-29
[8] = test system: HCT-116
[9] = test system: MCF7
[10] = test system: SF-539
[11] = test system: SNB-75
[12] = test system: SW-620
[13] = test system: Hs-578T
[14] = test system: LOX IMVI
[15] = test system: UACC-62
[16] = test system: KM12
[17] = test system: SNB-19
[18] = test system: M14
[19] = test system: CAKI-1
[20] = test system: UO-31
[21] = test system: COLO 205
[22] = test system: 786-0
[23] = test system: RPMI-8226
[24] = test system: MDA-N
[25] = test system: DU-145
[26] = test system: SK-MEL-5
[27] = test system: TK-10
[28] = test system: SK-MEL-28
[29] = test system: NCI-H226
[30] = test system: A549
[31] = test system: OVCAR-5
[32] = test system: HOP-62
[33] = test system: NCI/ADR-RES
[34] = test system: ACHN
[35] = test system: HL-60
[36] = test system: NCI-H460
[37] = test system: OVCAR-8
[38] = test system: SF-268
[39] = test system: MDA-MB-231
[40] = test system: A498
[41] = test system: MOLT-4
[42] = test system: PC-3
[43] = test system: SK-OV-3
[44] = test system: OVCAR-3
[45] = test system: NCI-H23
[46] = test system: HCT-15
[47] = test system: RXF 393
[48] = test system: SF-295
[49] = test system: MDA-MB-435
[50] = test system: EKVX
[51] = test system: BT-549
[52] = test system: K562
[53] = test system: IGROV-1
[54] = test system: UACC-257
[55] = test system: Malme-3M
[56] = test system: CCRF-CEM
[57] = test system: OVCAR-4

O=C1N/C(=N/N=C/c2cccs2)N/C1=C\c1ccco1
GI50 [1]: > 100 µM (inactive)
GI50 [2]: 23.5 µM (inactive)
GI50 [3]: 43.8 µM (inactive)
GI50 [4]: 7.98 µM (inactive)
GI50 [5]: > 100 µM (inactive)
GI50 [6]: 7.29 µM (inactive)
GI50 [7]: 39.6 µM (inactive)
GI50 [8]: 35.5 µM (inactive)
GI50 [9]: 30.3 µM (inactive)
GI50 [10]: 28.9 µM (inactive)
GI50 [11]: 84.7 µM (inactive)
GI50 [12]: 30.4 µM (inactive)
GI50 [13]: 29.3 µM (inactive)
GI50 [14]: 21.6 µM (inactive)
GI50 [15]: 60.7 µM (inactive)
GI50 [16]: 34 µM (inactive)
GI50 [17]: 81.5 µM (inactive)
GI50 [18]: 8.57 µM (inactive)
GI50 [19]: > 100 µM (inactive)
GI50 [20]: > 100 µM (inactive)
GI50 [21]: 35.5 µM (inactive)
GI50 [22]: 51.6 µM (inactive)
GI50 [23]: 23.7 µM (inactive)
GI50 [24]: 2.93 µM (inactive)
GI50 [25]: > 100 µM (inactive)
GI50 [26]: 24.3 µM (inactive)
GI50 [27]: > 100 µM (inactive)
GI50 [28]: 76.9 µM (inactive)
GI50 [29]: 21.3 µM (inactive)
GI50 [30]: 33.7 µM (inactive)
GI50 [31]: > 100 µM (inactive)
GI50 [32]: > 100 µM (inactive)
GI50 [33]: 66.4 µM (inactive)
GI50 [34]: > 100 µM (inactive)
GI50 [35]: 31.4 µM (inactive)
GI50 [36]: 23.2 µM (inactive)
GI50 [37]: 37 µM (inactive)
GI50 [38]: 19.8 µM (inactive)
GI50 [39]: > 100 µM (inactive)
GI50 [40]: 17.1 µM (inactive)
GI50 [41]: > 100 µM (inactive)
GI50 [42]: 18.9 µM (inactive)
GI50 [43]: 21.9 µM (inactive)
GI50 [44]: 22.5 µM (inactive)
GI50 [45]: 45.3 µM (inactive)
GI50 [46]: > 100 µM
GI50 [47]: 90.6 µM (inactive)
GI50 [48]: 94.2 µM (inactive)
GI50 [49]: 20.6 µM (inactive)
GI50 [50]: > 100 µM (inactive)
GI50 [51]: 70 µM (inactive)
GI50 [52]: 37.4 µM (inactive)
GI50 [53]: 26.1 µM (inactive)
GI50 [54]: 55.7 µM (inactive)
GI50 [55]: 38.6 µM (inactive)
GI50 [56]: 12 µM (inactive)
GI50 [57]: > 100 µM (inactive)
